The text below walks through data of patent US11123335B2, “Method for preventing lung diseases in smokers and non-smokers using antihypertensive drug” (SEOUL NATIONAL UNIVERSITY R & DB FOUNDATION, priority 2015, dated 2021).

In data set [1] the test system is IGF-1R. The data set is described as follows: NE-mediated IGF-1R activation in lung epithelial cells. It counts as cell-based, human. As to the method: (§1) Cells were washed twice with ice-cold PBS, and then lysed with a modified RIPA buffer [50 mM Tris-HCl (pH 7.4), 150 mM NaCl, 1 mM EDTA, 0.25% sodium deoxycholate, 1% Triton X-100, a protease inhibitor cocktail, 100 mM NaF, 1 mM Na3VO4]. Lysates were centrifuged at 13,000 rpm for 15 to 20 minutes to harvest supernatants, and then the collected proteins were quantified using the BCA method. Equivalent amounts of the proteins were subjected to electrophoresis using 8-15% SDS-PAGE, and then transferred to a PVDF membrane. The membrane was washed with TBST (0.01% Tween-20-containing Tris-buffered saline), and blocked in a blocking buffer (diluted in TBST to contain 5% skim milk) at room temperature for 1 hour. The membrane was incubated with primary antibodies diluted in 3% BSA-containing TBST at 4° C. for 12 hours, and washed with TBST for over 1 hour. The membrane was incubated with secondary antibodies diluted in TBST containing 3% skim milk at room temperature for 1 to 2 hours, and washed with TBST for over 1 hour. The membrane was reacted in an ECL solution, and band visualization was carried out by exposure to an X-ray film.

Data set [2] concerns IGF2. Nature of the data set: NE-mediated IGF2 secretion in lung epithelial cells. It counts as cell-based, human. As to the method: ELISA for IGF1, IGF2 and NE were performed using commercially available ELISA kits (R&D Systems, DSL or Abnova) according to the manufacturer's instruction.
Data set [3] concerns mice. The data set is described as follows: NE (stress hormone) lung carcinogenesis model with urethane. It is filed as in vivo, mouse. Conditions: continuous NE exposure by micro-osmotic pump, 12 weeks, urethane 1 g/kg. As to the method: To identify the carcinogenesis promotion by a stress hormone NE, NE (50.1 mM) or vehicle PBS was injected into micro-osmotic pumps (Alzet), and then the pumps were implanted into the backs of mice. Six weeks later, the existing pumps were removed, NE or PBS-injected new pumps were implanted into the mice, and then the mice were continuously exposed (daily exposure at a dose of 1 μmol per 100 g mouse) to NE for a total of 12 weeks. To stimulate tumorigenesis, three days after the pump implantation, urethane was administered at a dose of 1 g/kg.
For non-invasive observation of tumors before autopsy, MMPSense 680 probes were injected, and images were obtained using IVIS Spectrum microCT (PerkinElmer). After autopsy of the mice, lungs were extracted, and produced tumors were counted and embedded in paraffin to form paraffin blocks. Four or more tissue sections were prepared at regular intervals and stained by H&E staining, and then numbers and sizes of the tumors were measured to calculate volumes of the tumors. The tumor volume was calculated according to (minor axis)^2×major axis×0.5.

The subject of data set [4] is lung epithelial cells. The data set is described as follows: Transformation of lung epithelial cells by stress hormones. The conditions noted are these: treatment with the stress hormone alone. It is filed as cell-based, human. As to the method: Cells (2-3×10^3 cells) were seeded into 96-well plates, treated with a test drug diluted with a medium, and then incubated for 3 days. After incubation, the cells were treated with an MTT solution to have a final concentration of 200-500 μg/ml and incubated for 2 to 4 hours. After discarding the medium, produced formazan was dissolved in DMSO, and then the absorbance at 570 nm was measured. Alternatively, cells were seeded into 12- or 24-well plates, collected after a predetermined time after treatment with a test drug, and then counted using a hemocytometer. 100 to 300 cells were seeded into 6- or 12-well plates and then treated with NNK or NNK and a test drug for 2 to 3 weeks. After 2 to 3 weeks, Colony formation was observed and the colonies were counted after stained staining with crystal violet. Before the experiment, low-melting agar (final concentration of agar: 1%) was diluted with a medium, and then 1 ml of the resulting solution was added and solidified in each 24-well plate, resulting in bottom agar. 2,000 to 5,000 cells were mixed with the low melting agar (final concentration of agar: 0.35-0.4%), 500 μl of the resulting mixture was added onto each bottom agar. After solidification of the agar, the cells were treated with NNK or a test drug, which was diluted with a medium. After 2 to 4 weeks after treatment, colonies were stained with an MTT solution, observed, and then counted. Lung epithelial cells at 90 to 95% confluency were treated with a carcinogen diluted with a growth factor-free medium, or a carcinogen and a test drug. After 2 to 3 weeks, foci formation was observed.

Data set [5] deals with IGF-1R. Nature of the data set: Angiotensin-induced activation of IGF-1R signaling in BEAS-2B. It is filed as cell-based, human. Conditions: angiotensin stimulation. As to the method: as §1
The subject of data set [6] is FVB mouse. Nature of the data set: Emphysema-induced mouse model (NNK/B[a]P). It is filed as in vivo. Conditions: FVB mice, amlodipine 0.8 mg/kg oral 6 times a week, 5 months. As to the method: Cells were plated onto coverslips, pretreated with a drug and then treated with NNK or NE. OCT blocks were sliced to have a thickness of 4 μm and then placed onto silane-coated slides. Cells or tissue was washed with PBS, and fixed with 4% paraformaldehyde at room temperature for 30 minutes. Afterward, the cells were permeabilized with 0.1% Triton X-100, and blocked in a blocking solution. After treatment with primary antibodies at 4° C. for over 12 hours, the cells were washed with PBS several times, and then treated with fluorescence-binding secondary antibodies. Subsequently, after washing with PBS several times, the slides were mounted with a DAPI-containing mounting solution, and images were captured using a confocal microscope.
Paraffin blocks were sliced to have a thickness of 4 μm, placed onto silane-coated slides, and then dried. […]
As a method for detecting the activation degree of a protease, a matrix metalloproteinase (MMP), known as the main factor causing COPD in lung tissue, a proper amount of a reaction buffer containing fluorescein isothiocyanate (FITC)-coupled DQ gelatin was added to a slide, and reacted at 37° C. in a dark room for 12 hours. The activated MMP decomposed the DQ gelatin, resulting in fluorescence from FITC which had been inhibited, and thus the fluorescence intensity of FITC was directly proportional to MMP activity. […]

[7] abbreviates: NE-treated lung epithelial cells.

`NC[C@H](O)c1ccc(O)c(O)c1` [NE, norepinephrine]: the IGF-1R phosphorylation entry in data set [1] (BEAS-2B, HBE/p53i, NHBE, HB56B, NE time- or concentration-dependent) was “increased”. Besides, the IGF2 secretion result in data set [2] (lung epithelial cells treated with NE) is recorded as “increased”. Also, the urethane-initiated lung carcinogenesis result in data set [3] is “significantly increased”. For the same molecule, the “transformation of lung epithelial cells (viability, colony formation, foci formation)” value in data set [4] is given as “significantly enhanced”.

Consider “angiotensin (DRVYIHPF; Angiotensin-2; UniProt P01019 25-32, looked up) [angiotensin used to stimulate BEAS-2B lung epithelial cells]”, for which the “activation of IGF-1R and downstream signaling mediators Akt and ERK” value in data set [5] was “concentration- and time-dependently activated”.

Take amlodipine: the “NE-mediated IGF-1R activation” value in data set [1] (setting [7]) is given as “inhibited”. Further, in data set [2] (setting [7]), the “NE-mediated IGF2 secretion” value is “inhibited”. Moreover, in data set [6], the “lung tissue collapse (morphology, H&E)” value is given as “inhibited”.
